ChEMBL document CHEMBL6103591, “Discovery of naphthoquinone-furo-piperidone derivatives as dual targeting agents of STAT3 and NQO1 for the treatment of breast cancer” (Eur J Med Chem, 2025)
Activity calls are given as the source filed them. No cut-off for these calls is given here.

Tests used:
MCF7 = assay: Antiproliferative activity against human MCF7 cells incubated for 48 hrs by MTT assay; format: functional, cell-based; details: MCF7, 48 h
MDA-MB-468 [1] = assay: Antiproliferative activity against human MDA-MB-468 cells assessed as reduction in cell viability incubated for 48 hrs by MTT assay; format: functional, cell-based; details: MDA-MB-468, 48 h
MDA-MB-231 [2] = assay: Antiproliferative activity against human MDA-MB-231 cells assessed as reduction in cell viability incubated for 48 hrs by MTT assay; format: functional, cell-based; details: MDA-MB-231, 48 h
[3] = molecular target: Signal transducer and activator of transcription 3 (Homo sapiens, UniProt P40763); assay: Inhibition of STAT3 activation in human MDA-MB-231 cells assessed as reduction in STAT3 phosphorylation at Tyr705 residue at 1 uM measured after 24 hrs by Western blot analysis relative to control; format: cell-based
MDA-MB-231 [4] = assay: Downregulation of total STAT3 expression in human MDA-MB-231 cells at 1 uM incubated for 24 hrs by Western blotting analysis; format: functional, cell-based
MDA-MB-468 [5] = assay: Induction of apoptosis in human MDA-MB-468 cells assessed as late apoptotic cells at 3 uM measured after 24 hrs by Annexin V/propidium iodide (PI) double staining based flow cytometric analysis (reference value: 2.24 %); format: functional
MDA-MB-231 [6] = assay: Induction of apoptosis in human MDA-MB-231 cells assessed as late apoptotic cells at 3 uM measured after 24 hrs by Annexin V/propidium iodide (PI) double staining based flow cytometric analysis (reference value: 2.22 %); format: functional
MDA-MB-231 [7] = assay: Induction of apoptosis in human MDA-MB-231 cells assessed as early apoptotic cells at 3 uM measured after 24 hrs by Annexin V/propidium iodide (PI) double staining based flow cytometric analysis (reference value: 1.98 %); format: functional
MDA-MB-468 [8] = assay: Induction of apoptosis in human MDA-MB-468 cells assessed as early apoptotic cells at 3 uM measured after 24 hrs by Annexin V/propidium iodide (PI) double staining based flow cytometric analysis (reference value: 2.94 %); format: functional

Signal transducer and activator of transcription 3, sequence (P40763 whole entry): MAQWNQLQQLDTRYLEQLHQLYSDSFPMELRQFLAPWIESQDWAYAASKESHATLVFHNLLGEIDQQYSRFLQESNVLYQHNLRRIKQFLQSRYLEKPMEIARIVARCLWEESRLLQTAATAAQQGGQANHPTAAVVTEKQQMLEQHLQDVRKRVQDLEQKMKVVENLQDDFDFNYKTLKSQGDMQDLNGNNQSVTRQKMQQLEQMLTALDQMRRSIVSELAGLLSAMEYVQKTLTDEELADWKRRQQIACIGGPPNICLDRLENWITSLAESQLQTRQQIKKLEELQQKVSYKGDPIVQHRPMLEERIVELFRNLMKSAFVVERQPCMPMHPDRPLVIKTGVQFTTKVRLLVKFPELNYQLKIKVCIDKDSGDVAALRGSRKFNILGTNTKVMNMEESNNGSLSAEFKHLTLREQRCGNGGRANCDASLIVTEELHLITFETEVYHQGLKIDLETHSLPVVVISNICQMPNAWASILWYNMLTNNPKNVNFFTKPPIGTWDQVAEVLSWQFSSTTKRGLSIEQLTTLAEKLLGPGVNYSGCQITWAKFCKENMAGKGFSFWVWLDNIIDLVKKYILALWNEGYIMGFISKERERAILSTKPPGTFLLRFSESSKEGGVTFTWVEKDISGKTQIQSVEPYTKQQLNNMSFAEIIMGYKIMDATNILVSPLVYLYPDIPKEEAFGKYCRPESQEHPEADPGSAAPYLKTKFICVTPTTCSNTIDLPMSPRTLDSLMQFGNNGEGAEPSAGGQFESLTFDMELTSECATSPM

## CC1(C)CCC2=C(O1)c1ccccc1C(=O)C2=O [LAPACHONE]
MCF7
  IC50: 3990 nM

## O=C1C(=O)c2c(oc3c2CCN(CCN2CCOCC2)C3=O)-c2ccccc21
MDA-MB-468 [1]
  IC50: 1960 nM
MDA-MB-231 [2]
  IC50: 1080 nM

## C[C@H]1CN(CCCN2CCc3c(oc4c3C(=O)C(=O)c3ccccc3-4)C2=O)CCO1
MDA-MB-468 [1]
  IC50: 1720 nM
MDA-MB-231 [2]
  IC50: 800 nM

## CN1CCN(CCCN2CCc3c(oc4c3C(=O)C(=O)c3ccccc3-4)C2=O)CC1
MDA-MB-468 [1]
  IC50: 770 nM
MDA-MB-231 [2]
  IC50: 750 nM

## CN(C)CCCN1CCc2c(oc3c2C(=O)C(=O)c2ccccc2-3)C1=O
MDA-MB-468 [1]
  IC50: 1430 nM
MDA-MB-231 [2]
  IC50: 740 nM

## O=C1C(=O)c2c(oc3c2CCN(CCC(=O)N2CCOCC2)C3=O)-c2ccccc21
MDA-MB-468 [1]
  IC50: 2240 nM
MDA-MB-231 [2]
  IC50: 3050 nM

## CN(C)CCN1CCc2c(oc3c2C(=O)C(=O)c2ccccc2-3)C1=O
MDA-MB-468 [1]
  IC50: 1560 nM
MDA-MB-231 [2]
  IC50: 540 nM
[3]
  inhibition: Active

## CNC(=O)[C@H](Cc1ccccc1)N1CCc2c(oc3c2C(=O)C(=O)c2ccccc2-3)C1=O
MDA-MB-468 [1]
  IC50: 2550 nM
MDA-MB-231 [2]
  IC50: 3070 nM

## CN(C)CCn1ccc2c3c(oc2c1=O)-c1ccccc1C(=O)C3=O
MDA-MB-468 [1]
  IC50: 1210 nM
MDA-MB-231 [2]
  IC50: 840 nM

## O=C1C(=O)c2c(oc3c2CCN([C@H](CO)Cc2ccccc2)C3=O)-c2ccccc21
MDA-MB-468 [1]
  IC50: 2420 nM
MDA-MB-231 [2]
  IC50: 930 nM

## O=C1C(=O)c2c(oc3c2CCN(C2CCC(N4CCOCC4)CC2)C3=O)-c2ccccc21 (stereo not drawn)
MDA-MB-468 [1]
  IC50: 1290 nM
MDA-MB-231 [2]
  IC50: 1230 nM

## COC(=O)CN1CCc2c(oc3c2C(=O)C(=O)c2ccccc2-3)C1=O
MDA-MB-468 [1]
  IC50: 1550 nM
MDA-MB-231 [2]
  IC50: 1500 nM

## COC(=O)[C@H](CC(C)C)N1CCc2c(oc3c2C(=O)C(=O)c2ccccc2-3)C1=O
MDA-MB-468 [1]
  IC50: 2660 nM
MDA-MB-231 [2]
  IC50: 2440 nM

## COC(=O)CCCN1CCc2c(oc3c2C(=O)C(=O)c2ccccc2-3)C1=O
MDA-MB-468 [1]
  IC50: 2370 nM
MDA-MB-231 [2]
  IC50: 2510 nM

## O=C1C(=O)c2c(oc3c2CCN(CCCN2CC4(COC4)C2)C3=O)-c2ccccc21
MDA-MB-468 [1]
  IC50: 1460 nM
MDA-MB-231 [2]
  IC50: 920 nM

## CN1CCN(CCN2CCc3c(oc4c3C(=O)C(=O)c3ccccc3-4)C2=O)CC1
MDA-MB-468 [1]
  IC50: 410 nM
MDA-MB-231 [2]
  IC50: 1300 nM

## C[C@@H](CO)N1CCc2c(oc3c2C(=O)C(=O)c2ccccc2-3)C1=O
MDA-MB-468 [1]
  IC50: 1310 nM
MDA-MB-231 [2]
  IC50: 640 nM

## CCN(CC)CCN1CCc2c(oc3c2C(=O)C(=O)c2ccccc2-3)C1=O
MDA-MB-468 [1]
  IC50: 1310 nM
MDA-MB-231 [2]
  IC50: 610 nM
[3]
  inhibition: Active

## COC(=O)[C@H](Cc1ccccc1)N1CCc2c(oc3c2C(=O)C(=O)c2ccccc2-3)C1=O
MDA-MB-468 [1]
  IC50: 2420 nM
MDA-MB-231 [2]
  IC50: 930 nM

## O=CN1CCN(CCCN2CCc3c(oc4c3C(=O)C(=O)c3ccccc3-4)C2=O)CC1
MDA-MB-468 [1]
  IC50: 3690 nM
MDA-MB-231 [2]
  IC50: 3270 nM

## C[C@@H]1CN(CCCN2CCc3c(oc4c3C(=O)C(=O)c3ccccc3-4)C2=O)C[C@H](C)N1
MDA-MB-468 [1]
  IC50: 2490 nM
MDA-MB-231 [2]
  IC50: > 4000 nM

## CCN(CC)CCn1ccc2c3c(oc2c1=O)-c1ccccc1C(=O)C3=O
MDA-MB-468 [1]
  IC50: 1180 nM
MDA-MB-231 [2]
  IC50: 1840 nM

## O=C1C(=O)c2c(oc3c2CCN(CCCN2CCCC2)C3=O)-c2ccccc21
MDA-MB-468 [1]
  IC50: 1330 nM
MDA-MB-231 [2]
  IC50: 910 nM

## C[C@@H]1CN(CCCN2CCc3c(oc4c3C(=O)C(=O)c3ccccc3-4)C2=O)CCO1
MDA-MB-468 [1]
  IC50: 1580 nM
MDA-MB-231 [2]
  IC50: 680 nM

## O=C1C(=O)c2c(oc3c2CCN(CCCCO)C3=O)-c2ccccc21
MDA-MB-468 [1]
  IC50: 3070 nM
MDA-MB-231 [2]
  IC50: 2290 nM

## O=C1C(=O)c2c(oc3c2CCN(CCCN2CCCCC2)C3=O)-c2ccccc21
MDA-MB-231 [4]
  Activity: Active
MDA-MB-468 [1]
  IC50: 1200 nM
MDA-MB-231 [2]
  IC50: 330 nM
[3]
  inhibition: 100%

## O=C1C(=O)c2c(oc3c2CCN(CCO)C3=O)-c2ccccc21
MDA-MB-468 [1]
  IC50: 1430 nM
MDA-MB-231 [2]
  IC50: 750 nM

## COC(=O)[C@H](C)N1CCc2c(oc3c2C(=O)C(=O)c2ccccc2-3)C1=O
MDA-MB-468 [1]
  IC50: 1210 nM
MDA-MB-231 [2]
  IC50: 680 nM

## O=C1C(=O)c2c(oc3c2CCN(CCCn2ccnc2)C3=O)-c2ccccc21
MDA-MB-468 [1]
  IC50: 2370 nM
MDA-MB-231 [2]
  IC50: 2940 nM

## O=C1C(=O)c2c(oc3c2CCN(CCCO)C3=O)-c2ccccc21
MDA-MB-468 [1]
  IC50: 2230 nM
MDA-MB-231 [2]
  IC50: 1140 nM

## COC(=O)[C@H](Cc1ccc(O)cc1)N1CCc2c(oc3c2C(=O)C(=O)c2ccccc2-3)C1=O
MDA-MB-468 [1]
  IC50: 2430 nM
MDA-MB-231 [2]
  IC50: 3330 nM

## CNC(=O)[C@H](C)N1CCc2c(oc3c2C(=O)C(=O)c2ccccc2-3)C1=O
MDA-MB-468 [1]
  IC50: 1380 nM
MDA-MB-231 [2]
  IC50: 2620 nM

## CC(C)C[C@@H](CO)N1CCc2c(oc3c2C(=O)C(=O)c2ccccc2-3)C1=O
MDA-MB-468 [1]
  IC50: 2450 nM
MDA-MB-231 [2]
  IC50: 2490 nM

## COC(=O)CCN1CCc2c(oc3c2C(=O)C(=O)c2ccccc2-3)C1=O
MDA-MB-468 [1]
  IC50: 2420 nM
MDA-MB-231 [2]
  IC50: 2530 nM

## COC(=O)[C@H](CO)N1CCc2c(oc3c2C(=O)C(=O)c2ccccc2-3)C1=O
MDA-MB-468 [1]
  IC50: 1460 nM
MDA-MB-231 [2]
  IC50: 3780 nM

## C[C@@H](C(N)=O)N1CCc2c(oc3c2C(=O)C(=O)c2ccccc2-3)C1=O
MDA-MB-468 [1]
  IC50: 2890 nM
MDA-MB-231 [2]
  IC50: 3510 nM

## CCN(CC)CCCN1CCc2c(oc3c2C(=O)C(=O)c2ccccc2-3)C1=O
MDA-MB-468 [1]
  IC50: 1070 nM
MDA-MB-231 [2]
  IC50: 650 nM
[3]
  inhibition: Active

## O=C1C(=O)c2c(oc3c2CCN(CCC(=O)N2CCCCC2)C3=O)-c2ccccc21
MDA-MB-468 [1]
  IC50: 2500 nM
MDA-MB-231 [2]
  IC50: 3690 nM

## O=C1C(=O)c2c(oc3c2CCN([C@H](CO)Cc2ccc(O)cc2)C3=O)-c2ccccc21
MDA-MB-468 [1]
  IC50: 2620 nM
MDA-MB-231 [2]
  IC50: > 4000 nM

## CC(=O)c1cc2c(o1)C(=O)c1ccccc1C2=O [NAPABUCASIN]
MDA-MB-468 [1]
  IC50: 3590 nM
MDA-MB-468 [5]
  Activity: 6%
MDA-MB-231 [2]
  IC50: 3500 nM
MDA-MB-231 [6]
  Activity: 6.23%
MDA-MB-231 [7]
  Activity: 3.34%
MDA-MB-468 [8]
  Activity: 8.87%

## O=C1C(=O)c2c(oc3c(=O)n(CCN4CCCCC4)ccc23)-c2ccccc21
MDA-MB-468 [1]
  IC50: 630 nM
MDA-MB-231 [2]
  IC50: 880 nM

## O=C1C(=O)c2c(oc3c2CCN(CCCN2CCOCC2)C3=O)-c2ccccc21
MDA-MB-468 [1]
  IC50: 1240 nM
MDA-MB-231 [2]
  IC50: 740 nM

## COC(=O)CC[C@@H](C(=O)OC)N1CCc2c(oc3c2C(=O)C(=O)c2ccccc2-3)C1=O
MDA-MB-468 [1]
  IC50: 2370 nM
MDA-MB-231 [2]
  IC50: 3480 nM

## O=C1C(=O)c2c(oc3c2CCN([C@H](CO)CCCO)C3=O)-c2ccccc21
MDA-MB-468 [1]
  IC50: > 4000 nM
MDA-MB-231 [2]
  IC50: > 4000 nM

## CNC(=O)[C@H](CC(C)C)N1CCc2c(oc3c2C(=O)C(=O)c2ccccc2-3)C1=O
MDA-MB-468 [1]
  IC50: 2320 nM
MDA-MB-231 [2]
  IC50: 1930 nM
